Experiments:
[1] = target: T1, human carbonic anhydrase II (hCA II) (Homo sapiens, UniProt P00918); experiment: esterase assay (p-nitrophenyl acetate hydrolysis, […] nm), Lineweaver-Burk; format: biochemical
T1 construct: gene CA2; native enzyme purified from human erythrocytes

[2] = target: T2, human carbonic anhydrase I (hCA I) (Homo sapiens, UniProt P00915); experiment: as above; format: biochemical
T2 construct: gene CA1; native enzyme purified from human erythrocytes
T2 sequence (P00915 2-261): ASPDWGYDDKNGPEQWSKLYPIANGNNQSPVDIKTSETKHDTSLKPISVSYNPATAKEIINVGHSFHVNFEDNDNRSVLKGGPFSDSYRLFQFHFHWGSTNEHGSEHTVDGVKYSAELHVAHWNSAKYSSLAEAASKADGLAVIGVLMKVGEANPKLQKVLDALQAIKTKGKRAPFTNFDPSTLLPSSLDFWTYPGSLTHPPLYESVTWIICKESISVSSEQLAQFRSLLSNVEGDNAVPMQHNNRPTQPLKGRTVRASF

COc1cc(CNC(=O)CCCC/C=C/C(C)C)ccc1O [capsaicin, trans-8-methyl-N-vanillyl-6-nonenamide]
Ki [1]: 208 ± 14.4 µM | Ki [2]: 696 ± 59.4 µM

Reference: article PMC6270996, “Capsaicin: A Potent Inhibitor of Carbonic Anhydrase Isoenzymes” (Molecules, 2014)
